Structures are written as SMILES. Where only a bound is given, the exact number is not on record here.

Series [1] concerns Artemia salina. Briefly: Artemia salina lethality bioassay. In kind it is in vivo. Conditions: even at 50 μM, 48 h of exposure. The protocol: General toxicity to non-target species was evaluated using the brine shrimp (Artemia salina) lethality test (Meyer et al., 1982). A. salina cysts were allowed to hatch in nutrient-enriched seawater for approximately 48 hours at 25° C. Newly hatched instar I nauplii were harvested for toxicity test performed in 96-wells microplates with eight replicates per condition and 15-20 nauplii per well. Test solutions of the most promising sulfated antifouling compounds (50 and 25 μM) were prepared in filtered seawater. K2Cr2O7 (13.6 μM) was included as positive control and DMSO as negative control. Percentage of mortality was determined at 48 h of exposure.

Series [2] in a line: Luminescent Vibrio fischeri ecotoxicity assay (ISO11348). Conditions: luminescent Vibrio fischeri bacteria (NRRL-B-11177), contact time of 30 min, read-out: LC50 (inhibition of light radiation emitted). In kind it is cell-based. The protocol:
Luminescent Vibrio fischeri ecotoxicity assessment (ISO11348) was performed by IK4 TEKNIKER accordingly to the EU hazard assessment of substances and European Ecolabel (ISO 113482). Luminescent Vibrio fischeri bacteria test (NRRL-B-11177) was used as a standard test to evaluate the ecotoxicity of the most promising AF compounds. Vibrio fischeri bacteria from HACH-LANGE GmbH were grown in laboratory in standard conditions according to guidelines and exposed to a dilution serial of each compound (1000, 500, 250, 125, 62.5 mg/L). After 5, 15 and 30 min of exposure, the light emitted as a by-product of Vibrio fischeri cellular respiration was measured at 490 nm. Any inhibition of cellular activity results in a decreased rate of respiration and a corresponding decrease in the rate of luminescence. The decrease of bacterial luminescence measured after 5, 15 or 30 min of exposition was used as test endpoint. Luminescence was measured using a LUMIStox photometer from DR LANGE, after a contact time of 15 min and 30 min at 15±1° C., taking into account a correction factor, fk, which is a measure of intensity change of control samples during the exposure time.
The pH of all samples was within the interval 6.0-8.5. A 2% solution of sodium chloride (NaCl) in deionized water (20 g/L) was used as dilution medium and K2Cr2O7 11.3 μg·mL^−1) was used as positive control.

Series [3] deals with Phaeodactylum tricornutum. Description: Algae growth inhibition test (OECD 201). In kind it is cell-based. As for the experimental part:
This test was executed using […], which contains all the material necessary to perform growth inhibition tests with the marine diatom Phaeodactylum Tricornutum. The species of alga Phaeodactylum Tricornutum, were incubated with the testing leaching samples, for 72 hours, in disposable cells of 10 cm path-length. […] This terminology is used instead of the standard EC50 when the test material is not completely soluble at the test treat rates.

Series [4] relates to Mytilus galloprovincialis larvae. Briefly: Anti-settlement bioassay on xanthonic based marine coatings. Type of series: in vivo. The note with it: for reduction in the larvae settlement: incorporated in polyurethane (PU) marine paint at 2 wt %; for reduction of larval settlement: polyurethane based marine paint coating (1.7 wt. %). As for the experimental part: None instead, and depending on the xanthonic chemical functionalities and density, minor adjustments on those proportions were performed, in order to maintain the main coatings properties (e.g. curing time and adhesion). In addition, and to promote the compatibility and homogeneity of the antifoulants in the corresponding polymeric formulations, a prior dissolution step, in accurate pure and dehumidified organic solvents, may be comprised, followed by its addition and blending to the paint components system. The selection and content of the organic solvent must also rely on its compatibility with the components of each polymeric system.
The antifouling effectiveness of xanthonic based marine coating formulations was assessed by an in vivo anti-settlement bioassay on coated culture multiwell plates, using Mytilus galloprovincialis adhesive mussel plantigrades larvae as target species.

The nature of series [5]: Leaching test of antifoulant from coatings (adapted from ISO15181). Type of series: physicochemical. The note with it: PU coating, 45 days submerged in artificial seawater.
Series [6] concerns Daphnia magna. Briefly: Daphnia acute immobilization test (OECD 202). In kind it is in vivo. As for the experimental part: This test was performed using DAPHTOXKIT F MAGNATM. Daphnia magna are commonly known as water fleas, due to their jumping swimming resemblance to the movement of the fleas. Its short life span and reproductive capabilities make it an ideal organism for analytical use.
The swimming capability of Daphnia Magna was assessed after 48 hours of exposure to the diluted testing samples. The Daphnia were bred in the laboratory and should be no more than 24 hours old. The number of immobilized Daphnia was registered at 24 hours and 48 hours, for the calculation of EL50 and comparison with the control values. The EL50 is the effective concentration of the sample that is expected to cause immobilization to 50% of Daphnia.
Note that for this toxicity test, the leaching was obtained only from the WAF method test using the samples and Daphnia's mineral medium as […] because standard seawater is harmful to Daphnia.

Regarding `O=c1c2ccccc2oc2c(O)c(O)ccc12` [3,4dOHx, 3,4-dihydroxy-9H-xanthen-9-one], in series [1], the “toxicity to Artemia salina nauplii” value is “non-toxic effects”. The 50% inhibition of luminescence concentration (EC50) at 30 min in series [2] is over 750 µg/mL. In addition, the “EL50 (72 h) alga growth inhibition” value in series [3] is over 100 µg/mL. Further, the “reduction in the larvae settlement” value was “about 80%” in series [4] (after 40 h) and 55% in series [4] (after the first 15 h). Besides, the “incorporated antifoulant leached out of the polymeric matrix” value in series [5] worked out at 0.008%.

As for `O=C(O)COc1ccc2c(=O)c3ccccc3oc2c1OCC(=O)O` [D3,4 COOHX, 2,2′-((9-oxo-9H-xanthene-3,4-diyl)bis(oxy))diacetic acid], the “toxicity to Artemia salina nauplii” value in series [1] is “non-toxic effects”.

As to `COC(=O)COc1ccc2c(=O)c3ccccc3oc2c1OCC(=O)OC` [D3,4 OCH3X, dimethyl 2,2′-((9-oxo-9H-xanthene-3,4-diyl)bis(oxy))diacetate], the “toxicity to Artemia salina nauplii” value in series [1] is “non-toxic effects”.

In the case of `COc1cc(C=O)c2c(=O)c3ccccc3oc2c1OC` [XA11, 3,4-dimethoxy-9-oxo-9H-xanthene-1-carbaldehyde], in series [1], the “toxicity to Artemia salina nauplii” value is given as “non-toxic effects”.

For `COc1cc(CO)c2c(=O)c3ccccc3oc2c1OC` [XA12, 1-(hydroxymethyl)-3,4-dimethoxy-9H-xanthen-9-one], the “toxicity to Artemia salina nauplii” value in series [1] is on record as “non-toxic effects”.

Turning to `COc1cc(C)c2c(=O)c3ccccc3oc2c1OC` [XA13, 3,4-dimethoxy-1-methyl-9H-xanthen-9-one], the entries for the “reduction of larval settlement” value in series [4] (after 40 h) and in series [4] (first 15 h) were 29% and 50%, respectively.

Take `COc1cc(C(Br)Br)c2c(=O)c3ccccc3oc2c1OC` [XA14, 1-(dibromomethyl)-3,4-dimethoxy-9H-xanthen-9-one]: the “toxicity to Artemia salina nauplii” value in series [1] was “non-toxic effects”.

As for `COc1cc(CNCCN2CCOCC2)c2c(=O)c3ccccc3oc2c1OC` [XA15, 3,4-dimethoxy-1-(((2-morpholinoethyl)amino)methyl)-9H-xanthen-9-one], in series [1], the “toxicity to Artemia salina nauplii” value was “non-toxic effects”.

For `COc1cc(CN2CCN(CCO)CC2)c2c(=O)c3ccccc3oc2c1OC` [XA18, 1-((4-(2-hydroxyethyl)piperazin-1-yl)methyl)-3,4-dimethoxy-9H-xanthen-9-one], the “toxicity to Artemia salina nauplii” value in series [1] is on record as “non-toxic effects”.

For `COc1cc(CN2CCc3c(N)cccc3C2)c2c(=O)c3ccccc3oc2c1OC` [XA20, 1-((5-amino-3,4-dihydroisoquinolin-2(1H)-yl)methyl)-3,4-dimethoxy-9H-xanthen-9-one], in series [2], the 50% inhibition of luminescence concentration (EC50) at 30 min is over 300 µg/mL. The “EL50 (72 h) alga growth inhibition” value in series [3] is over 125 µg/mL. The “EL50 (48 h) immobility” value in series [6] is over 300 µg/mL.

Take `COc1cc(CN2CCCCC2)c2c(=O)c3ccccc3oc2c1OC` [XA22, 3,4-dimethoxy-1-(piperidin-1-ylmethyl)-9H-xanthen-9-one]: the “toxicity to Artemia salina nauplii” value in series [1] is “non-toxic effects”.

In the case of `CC1(C)CCc2cc3c(=O)c4ccccc4oc3c(O)c2O1` [XP13, 12-hydroxy-2,2-dimethyl-3,4-dihydro-2H,6H-pyrano[3,2-b]xanthen-6-one], in series [1], the “toxicity to Artemia salina nauplii” value is “non-toxic effects”. For the same compound, in series [2], the 50% inhibition of luminescence concentration (EC50) at 30 min was over 237 µg/mL.

The record behind these values is US12030891B2, “Xanthonic compounds and their use as antifouling agents” (CIIMAR—CENTRO INTERDISCIPLINAR DE INVESTIGACAO MARINHA E …, priority 2018, dated 2024).
